Key:
mouse myoblasts = experiment: Cytotoxicity of sucralose on nucleated cells; assay type: cell-based
From the text: Protection against hemolysis of red blood cells in the presence of increasing amounts of sucralose was examined at 3.5×(˜0.7 billion cells/ml) and 7×(˜1.4 billion cells/ml) the original red blood cell count, and are shown in FIGS. 15A and 15B, respectively. […] In addition, studies on the cytotoxicity of sucralose on nucleated cells, mouse myoblasts, indicate that sucralose concentrations in excess of about 2.5% w/v may have toxic effects.

[1] = Differential scanning calorimetry of unilamellar DPPC vesicles with added sugar; assay type: physicochemical; settings: for cooperativity of the transition (peak width at half peak height, PWHH) / enthalpy of main phase transition / main phase transition temperature of DPPC liposomes: increasing mole ratio of sugar to lipid; for main phase transition temperature of DPPC liposomes: DSC 30-60 °C at 2 °C/min, DPPC alone ~42 °C
Experimental: Methods: Unilamellar vesicles were prepared by extrusion. Sucrose or sucralose was added to the vesicles to achieve the desired mole ratio after vesicle formation. Differential scanning calorimetry was used to examine the main phase behavior of the liposome bilayer. Thermograms were obtained in the heating and cooling directions between 30° C. and 60° C. at a rate of 2° C./min.

red blood cells [2] = experiment: Percent hemolysis of red blood cells frozen with sucralose and thawed; assay type: cell-based, sheep; settings: for protective effect compared with 20% glycerol solution: equivalent volume of 20% v/v glycerol, blood frozen for 48 hours; for protection during freezing (hemolysis): measured against triton X and PBS
Experimental: (§1) Experiments that measure the percent hemolysis of red blood cells before and after treatment were carried out using sheep blood.
This is data from blood frozen for 48 hours.
(§2) We measured absorption at three wavelengths (450 nm, 500 nm and 525 nm, shown in FIGS. 10, 11 and 12, respectively). […] That is why the error bars are smallest for those.

red blood cells [3] = experiment: Percent hemolysis of red blood cells on addition of sucralose (no freezing); assay type: cell-based, sheep; settings: measured against PBS buffer and triton X
Experimental: as §1, §2

OC[C@H]1O[C@H](O[C@]2(CCl)O[C@H](CCl)[C@@H](O)[C@@H]2O)[C@H](O)[C@@H](O)[C@H]1Cl [sucralose, 1,6-Dichloro-1,6-dideoxy-β-D-fructofuranosyl-4-chloro-4-deoxy-α-D-galactopyranoside]
sucralose concentration that may have toxic effects (mouse myoblasts): above 2.5 % w/v | shoulders in thermograms (indicative of phase separation) ([1]; cooling cycle): not seen | shoulders in thermograms (indicative of phase separation) ([1]; heating cycle): a shoulder is seen in some thermograms | cooperativity of the transition (peak width at half peak height, PWHH) [1]: drastic decrease in cooperativity | enthalpy of main phase transition [1]: remained essentially unchanged | main phase transition temperature of DPPC liposomes [1]: decreased significantly | protective effect compared with 20% glycerol solution (red blood cells [2]): better than using an equivalent volume of a 20% glycerol solution | protective effect compared with 20% glycerol solution (red blood cells [2]; listed as sugar): performs better than a 20% v/v solution of glycerol | protection during freezing (hemolysis) (red blood cells [2]; frozen and thawed): substantially reduces hemolysis | protection during freezing (hemolysis) (red blood cells [2]; frozen and thawed, listed as sugar): protective effect | sucralose concentration resulting in decreased efficacy in protecting red blood cells from hemolysis (red blood cells [2]; frozen and thawed, ~0.7 and ~1.4 billion cells/ml): above 2.5 % w/v | amount of sucralose required for cryopreservation of red blood cells (red blood cells [2]; red blood cell count about 0.2 to 1.4 billion cells/ml): increases with an increase of red blood cell concentration | induction of hemolysis on addition (red blood cells [3]): does not induce hemolysis

OC[C@H]1O[C@@](CO)(O[C@H]2O[C@H](CO)[C@@H](O)[C@H](O)[C@H]2O)[C@@H](O)[C@@H]1O [sucrose]
shoulders in thermograms (indicative of phase separation) ([1]; cooling cycle): shoulders are again observed | shoulders in thermograms (indicative of phase separation) ([1]; heating cycle): shoulders appear | cooperativity of the transition (peak width at half peak height, PWHH) [1]: decrease in cooperativity | enthalpy of main phase transition [1]: remains relatively stable | main phase transition temperature of DPPC liposomes [1]: little change
